We go through two compounds from PMC10595561, “A novel microextraction technique aided by air agitation using a natural hydrophobic deep eutectic solvent for the extraction of fluvastatin and empagliflozin from plasma samples: application to pharmacokinetic and drug–drug interaction study” (RSC Advances, 2023).

Broadly, the log P is a log measure of how a compound divides between an organic and an aqueous phase. By half-life is commonly meant the time needed for the level to fall by half in the phase considered. For orientation: AUC(0-inf) means total exposure, with the tail of the curve extrapolated. A word on the Cmax: it is the maximum level reached in the sampled fluid or tissue. A word on the MRT: it is a mean duration of stay, worked out from the concentration-time curve. For orientation: Tmax means the time at which the peak concentration occurs.

Molecules are shown by their SMILES. Where two headings read alike, the source gives them in different places.

The conditions of series [1]: cited from earlier work.
Series [2] is described as follows: Pharmacokinetic study of FLV in rabbits after oral FLV alone and with EMP. The class given is in vivo, New Zealand white rabbits. The settings on record: mean ± SD; for AUC(0-t) / k el / half-life / AUC(0-inf) / Cmax / MRT: rabbit, plasma, po, 2 mg/kg; for AUC(0-t): read-out: AUC0-24; for k el: read-out: Ke (elimination rate constant) (converted); for half-life: read-out: t0.5 (elimination half-life) (converted). The method, then: Ethical approval (under the No. 06/2023/0111) for this research was granted by the ethics committee at Assiut University, Egypt, and the study was conducted in adherence to the principles outlined in the Declaration of Helsinki. The study involved six New Zealand white rabbits, each weighing 2.0 ± 0.2 kg, obtained from a licensed animal supplier in Assiut, Egypt. Before commencing the study, the rabbits' health was evaluated, ensuring they were in good condition. The rabbits were individually housed in cages measuring 0.8 × 0.6 × 0.5 m and given a 15 day acclimatization period to adjust to the experimental conditions and handling. During this time, no medications or vaccines were administered to the rabbits. The room temperature was kept constant at 25 ± 2 °C, and the relative humidity was maintained at 50 ± 5%. Throughout the acclimatization period, the rabbits were provided with a commercial pellet diet and water. Before the experiment began, the rabbits fasted for approximately 12 hours while being allowed access to water.
The rabbits administered FLV via oral route at a dose of 2.0 mg kg^−1. After a washout period of 14 days to allow any FLV to clear from the rabbits' bodies, the same rabbits administered both (2 mg kg^−1 for FLV and 1.5 mg kg^−1 for EMP). Blood samples (1.0 mL) were collected after administration of the studied analytes after 0.25, 0.5, 1, 1.5, 3, 5, 7, 10, 12, 18 and 24 h of their administration. The samples were drawn from marginal ear vein, placed into tubes that had been heparinized, and centrifuged for 15 minutes at 6000 rpm. The plasma was then collected and stored at −20 °C in dark containers until analysis. The pharmacokinetic parameters of FLV were calculated using one compartment model for the treated group using Phoenix®WinNonlin software version 5.1 (Pharsight, Mountain View, CA, USA). These parameters included total area under the curve (AUC) from 0 to 24 hours (AUC0→24), cumulative plasma concentration from 0 to infinity (AUC0→∞), peak plasma concentration (Cmax), elimination rate constant (Ke), mean residence time (MRT), absorption half-life (t1/2a), and elimination half-life (t1/2). The data are reported as mean ± standard deviation (mean ± SD). To analyze differences in parameters between the groups, t-test was employed, using GraphPad Prism 9.0.

For series [3] the following is noted: carboxylic acid functional group; no reference given; cited from earlier work.
Series [4] relates to organic anion transporting polypeptide 1B1 (OATP1B1). Set-up: method as in PMID 27936281, PMID 19785645, PMID 29538325. The settings on record: cited from earlier work.
[5] abbreviates: New Zealand white, FLV (2 mg kg−1) co-administered with EMP (1.5 mg kg−1), oral, rabbit plasma.
Where [6] appears, read: New Zealand white, FLV (2 mg kg−1) co-administered with EMP (1.5 mg kg−1), rabbit plasma.
Where [7] appears, read: New Zealand white, FLV alone, oral 2.0 mg kg−1, rabbit plasma.

As for `CC(C)n1c(/C=C/C(O)CC(O)CC(=O)O)c(-c2ccc(F)cc2)c2ccccc21` (stereo not shown) [FLV, Fluvastatin], in series [1], the lipophilicity (log P) is listed as 4.5. Moreover, the Ka in series [2] (FLV (2 mg kg−1) co-administered with EMP (1.5 mg kg−1), oral, rabbit plasma) was 2.52 ± 0.42 h⁻¹. For the same compound, the Ka in series [2] (FLV alone, oral 2.0 mg kg−1, rabbit plasma) was 2.24 ± 0.42 h⁻¹. Also, in series [2] (setting [5]), the AUC(0-t) is 2580 ± 245 ng·h/mL, the k el was 2.5e-05 s⁻¹, the half-life was 7.73 h and the Tmax is 1.5 h. Besides, in series [2] (setting [6]), the total exposure AUC(0-inf) was determined as 2900 ± 189 ng·h/mL, the peak concentration (Cmax) was 352 ng/mL and the mean residence time MRT came to 7.66 ± 0.77 h. Moreover, in series [2] (setting [7]), the AUC(0-inf) came out at 1370 ± 144 ng·h/mL, the maximum concentration (Cmax) came out at 250 ng/mL, the MRT was 6.99 ± 0.89 h and the AUC(0-t) worked out at 1340 ± 452 ng·h/mL. Also, in series [2] (setting [7]), the k el is 4.44e-05 s⁻¹ and the half-life is 4.27 h. Moreover, the pKa entry in series [3] is on record as “around 4.8”.

As to `OC[C@H]1O[C@@H](c2ccc(Cl)c(Cc3ccc(O[C@H]4CCOC4)cc3)c2)[C@H](O)[C@@H](O)[C@@H]1O` [EMP, Empagliflozin], the “Effect on OATP1B1 transporter” value in series [4] is reported as “inhibit”. Besides, the “log P” value in series [1] is on record as 1.7.
